# Laboratory results from US20110257208A1, “COMPOUNDS USEFUL AS FAAH MODULATORS AND USES THEREOF” (priority 2008, published 2011).
# Target: T1, hFAAH (Homo sapiens, UniProt O00519)
# T1 construct: expressed in transfected cells; host or cells: HEK293-TRex (Invitrogen) stably transfected with hFAAH in the pcDNA5-Tet-off vector, or T84 human colon epithelial cells (endogenous hFAAH); used as a microsomal preparation
# T1 sequence (O00519 1-579): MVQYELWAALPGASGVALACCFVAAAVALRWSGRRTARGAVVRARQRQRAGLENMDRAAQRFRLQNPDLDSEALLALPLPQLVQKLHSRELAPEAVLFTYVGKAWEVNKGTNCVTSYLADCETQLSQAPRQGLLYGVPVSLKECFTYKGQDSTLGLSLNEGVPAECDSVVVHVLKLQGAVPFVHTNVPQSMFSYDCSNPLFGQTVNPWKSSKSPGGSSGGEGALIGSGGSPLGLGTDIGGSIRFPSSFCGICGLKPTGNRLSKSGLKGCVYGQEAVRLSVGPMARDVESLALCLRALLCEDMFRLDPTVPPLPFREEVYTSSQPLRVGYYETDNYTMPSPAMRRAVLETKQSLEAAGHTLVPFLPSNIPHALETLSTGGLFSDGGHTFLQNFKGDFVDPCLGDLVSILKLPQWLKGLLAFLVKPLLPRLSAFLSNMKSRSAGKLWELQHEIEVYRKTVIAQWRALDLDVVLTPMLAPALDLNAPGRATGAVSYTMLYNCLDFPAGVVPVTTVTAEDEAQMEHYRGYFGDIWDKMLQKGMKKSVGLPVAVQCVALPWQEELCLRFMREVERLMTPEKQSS
# Test: Fluorimetric assay with hFAAH microsomes (enzymatic, fluorescence based)
# Format: biochemical
# Conditions: compound at 1 uM, AA-AMC substrate
# Procedure: Human cell line T84 (human colon epithelial cells), which expresses endogenous hFAAH, or HEK293-TRex cells (Invitrogen) stably transfected with hFAAH in the pcDNA5-Tet-off vector are cultured in medium containing DMEM, 10% FBS penicillin/streptomycin, glutamax, 200 μg/ml hygromycin and 0.5 μg/ml blasticidin. Cell collection is done 24 h after induction with doxycycline by first washing the cells with cold PBS and then incubating them with Versene before centrifugation. Cell pellets are then stored at −80° C. until needed. For homogenization, the cell pellets are thawed on ice […] and resuspended in homogenization buffer (50 mM HEPES (pH 7.4), 1 mM EDTA, 1 μM Pepstatin A, 100 μM Leupeptin, 0.1 mg/mL aprotinin). Cell suspensions are then homogenized on ice using the Polytron 1200 C at setting 6 for three 30-second intervals with 30-second rests. The suspension is centrifuged at 1000 g for 10 minutes at 4° C. and the supernatant is collected and further centrifuged at 24000 rpm for 30 minutes at 4° C. using an ultracentrifuge. Pellets are resuspended by adding in cold microsomal buffer (50 mM HEPES (pH 7.4) and 1 mM EDTA) and sheared through a 23-gauge needle five times, keeping the suspension on ice. Protein concentrations are determined using the BCA assay and aliquoted preparations are stored at −80° C. until needed.
# Compound potency against hFAAH is determined using an enzymatic assay with a fluorescence readout. Briefly, experiments were carried out in a 96-well plate format (Corning Costar, # 3370) with a total well volume of 160 μL with components added in the following order: assay buffer (50 mM HEPES (pH 7.4), 1 mM EDTA, 1.4 mg/mL BSA), compound solutions (7 different concentrations per compound in duplicate), microsomal enzyme preparation (10 μg per well) and substrate [AA-AMC (arachadonyl 7-amino 4-methyl coumarin amide), 2 μM]. After a brief shaking, a kinetic read of the plate is obtained using a Tecan Safire II in kinetic mode for 275 cycles with excitation and emission wavelengths of 355 and 460 nm, respectively. Raw data is then processed and analyzed using Assay Explorer and GraphPad Prism.
# The following compounds have been or can be prepared according to the methods of the invention. An enzymatic (fluorescence based) assay is performed as described above. In Table 1, activity of each compound is expressed as follows: • ++++ % Inhibition >75% • +++ % Inhibition >50% • ++ % Inhibition >25% • + % Inhibition <25%
row,inhibition at 1 µM,SMILES
1,> 50%,"CCCCCN1Cc2ncnc(Nc3cnc4ccccc4c3)c2C1 [Compound 10, (6-Pentyl-6,7-dihydro-5H-pyrrolo[3,4-d]pyrimidin-4-yl)-quinolin-3-yl-amine]"
2,< 25%,"O=C(NCC1CCCCC1)N1Cc2ncnc(Nc3cnc4ccccc4c3)c2C1 [Compound 46, 4-(Quinolin-3-ylamino)-5,7-dihydro-pyrrolo[3,4-d]pyrimidine-6-carboxylic acid cyclohexylmethyl-amide]"
3,> 75%,"CCC(CC)CN1Cc2ncnc(Nc3cnc4ccccc4c3)c2C1 [Compound 14, [6-(2-Ethyl-butyl)-6,7-dihydro-5H-pyrrolo[3,4-d]pyrimidin-4-yl]-quinolin-3-yl-amine]"
4,< 25%,"c1ccc2ncc(Nc3ncnc4c3CN(CC3CC3)C4)cc2c1 [Compound 5, (6-Cyclopropylmethyl-6,7-dihydro-5H-pyrrolo[3,4-d]pyrimidin-4-yl)-quinolin-3-yl-amine]"
5,> 75%,"Cc1cccc(CN2Cc3ncnc(Nc4cnc5ccccc5c4)c3C2)c1C [Compound 87, [6-(2,3-Dimethyl-benzyl)-6,7-dihydro-5H-pyrrolo[3,4-d]pyrimidin-4-yl]-quinolin-3-yl-amine]"
6,> 25%,"Cc1ccsc1S(=O)(=O)N1Cc2ncnc(Nc3cnc4ccccc4c3)c2C1 [Compound 56, [6-(3-Methyl-thiophene-2-sulfonyl)-6,7-dihydro-5H-pyrrolo[3,4-d]pyrimidin-4-yl]-quinolin-3-yl-amine]"
7,< 25%,"O=C(CN1CCCCC1)N1Cc2ncnc(Nc3cnc4ccccc4c3)c2C1 [Compound 53, 2-Piperidin-1-yl-1-[4-(quinolin-3-ylamino)-5,7-dihydro-pyrrolo[3,4-d]pyrimidin-6-yl]-ethanone]"
8,> 75%,"c1ccc2ncc(Nc3ncnc4c3CN(CC3CCCCC3)C4)cc2c1 [Compound 2, (6-Cyclohexylmethyl-6,7-dihydro-5H-pyrrolo[3,4-d]pyrimidin-4-yl)-quinolin-3-yl-amine]"
9,> 25%,"c1ccc2ncc(Nc3ncnc4c3CN(C3CCCCC3)C4)cc2c1 [Compound 23, (6-Cyclohexyl-6,7-dihydro-5H-pyrrolo[3,4-d]pyrimidin-4-yl)-quinolin-3-yl-amine]"
10,> 25%,"O=S(=O)(c1ccc(F)cc1F)N1Cc2ncnc(Nc3cnc4ccccc4c3)c2C1 [Compound 58, [6-(2,4-Difluoro-benzenesulfonyl)-6,7-dihydro-5H-pyrrolo[3,4-d]pyrimidin-4-yl]-quinolin-3-yl-amine]"
11,> 25%,"CC(C1CCC1)N1Cc2ncnc(Nc3cnc4ccccc4c3)c2C1 (centres unmarked) [Compound 36, [6-(1-Cyclobutyl-ethyl)-6,7-dihydro-5H-pyrrolo[3,4-d]pyrimidin-4-yl]-quinolin-3-yl-amine]"
12,< 25%,"CC(CC(C)(C)C)N1Cc2ncnc(Nc3cnc4ccccc4c3)c2C1 (centres unmarked) [Compound 39, Quinolin-3-yl-[6-(1,3,3-trimethyl-butyl)-6,7-dihydro-5H-pyrrolo[3,4-d]pyrimidin-4-yl]-amine]"
13,> 25%,"Cc1noc(C)c1CN1Cc2ncnc(Nc3cnc4ccccc4c3)c2C1 [Compound 67, [6-(3,5-Dimethyl-isoxazol-4-ylmethyl)-6,7-dihydro-5H-pyrrolo[3,4-d]pyrimidin-4-yl]-quinolin-3-yl-amine]"
14,> 75%,"Cc1cnccc1CN1Cc2ncnc(Nc3cnc4ccccc4c3)c2C1 [Compound 78, [6-(3-Methyl-pyridin-4-ylmethyl)-6,7-dihydro-5H-pyrrolo[3,4-d]pyrimidin-4-yl]-quinolin-3-yl-amine]"
15,> 25%,"CC1(CN2Cc3ncnc(Nc4cnc5ccccc5c4)c3C2)COC1 [Compound 29, [6-(3-Methyl-oxetan-3-ylmethyl)-6,7-dihydro-5H-pyrrolo[3,4-d]pyrimidin-4-yl]-quinolin-3-yl-amine]"
16,< 25%,"c1ccc2ncc(Nc3ncnc4c3CN(C3COC3)C4)cc2c1 [Compound 44, (6-Oxetan-3-yl-6,7-dihydro-5H-pyrrolo[3,4-d]pyrimidin-4-yl)-quinolin-3-yl-amine]"
17,> 75%,"Cc1ccccc1CN1Cc2ncnc(Nc3cnc4ccccc4c3)c2C1 [Compound 92, [6-(2-Methyl-benzyl)-6,7-dihydro-5H-pyrrolo[3,4-d]pyrimidin-4-yl]-quinolin-3-yl-amine]"
18,> 50%,"Clc1ncc(CN2Cc3ncnc(Nc4cnc5ccccc5c4)c3C2)s1 [Compound 91, [6-(2-Chloro-thiazol-5-ylmethyl)-6,7-dihydro-5H-pyrrolo[3,4-d]pyrimidin-4-yl]-quinolin-3-yl-amine]"
19,> 50%,"c1ccc2ncc(Nc3ncnc4c3CN(Cc3ccnc5ccccc35)C4)cc2c1 [Compound 85, Quinolin-3-yl-(6-quinolin-4-ylmethyl-6,7-dihydro-5H-pyrrolo[3,4-d]pyrimidin-4-yl)-amine]"
20,> 25%,"O=S(=O)(c1ccccc1)N1Cc2ncnc(Nc3cnc4ccccc4c3)c2C1 [Compound 65, (6-Benzenesulfonyl-6,7-dihydro-5H-pyrrolo[3,4-d]pyrimidin-4-yl)-quinolin-3-yl-amine]"
21,> 25%,"O=S(=O)(c1ccc(-c2cnco2)s1)N1Cc2ncnc(Nc3cnc4ccccc4c3)c2C1 [Compound 55, [6-(5-Oxazol-5-yl-thiophene-2-sulfonyl)-6,7-dihydro-5H-pyrrolo[3,4-d]pyrimidin-4-yl]-quinolin-3-yl-amine]"
22,> 25%,"CC(C)CN1Cc2ncnc(Nc3cnc4ccccc4c3)c2C1 [Compound 7, (6-Isobutyl-6,7-dihydro-5H-pyrrolo[3,4-d]pyrimidin-4-yl)-quinolin-3-yl-amine]"
23,> 75%,"Cc1ncccc1CN1Cc2ncnc(Nc3cnc4ccccc4c3)c2C1 [Compound 17, [6-(2-Methyl-pyridin-3-ylmethyl)-6,7-dihydro-5H-pyrrolo[3,4-d]pyrimidin-4-yl]-quinolin-3-yl-amine]"
24,< 25%,"O=S(=O)(Cc1ccccc1)N1Cc2ncnc(Nc3cnc4ccccc4c3)c2C1 [Compound 63, (6-Phenylmethanesulfonyl-6,7-dihydro-5H-pyrrolo[3,4-d]pyrimidin-4-yl)-quinolin-3-yl-amine]"
25,< 25%,"O=C(CN1CCCCCC1)N1Cc2ncnc(Nc3cnc4ccccc4c3)c2C1 [Compound 52, 2-Azepan-1-yl-1-[4-(quinolin-3-ylamino)-5,7-dihydro-pyrrolo[3,4-d]pyrimidin-6-yl]-ethanone]"
26,> 25%,"O=S(=O)(C1CCCC1)N1Cc2ncnc(Nc3cnc4ccccc4c3)c2C1 [Compound 57, (6-Cyclopentanesulfonyl-6,7-dihydro-5H-pyrrolo[3,4-d]pyrimidin-4-yl)-quinolin-3-yl-amine]"
27,> 50%,"CC(C)Oc1ccccc1CN1Cc2ncnc(Nc3cnc4ccccc4c3)c2C1 [Compound 109, [6-(2-Isopropoxy-benzyl)-6,7-dihydro-5H-pyrrolo[3,4-d]pyrimidin-4-yl]-quinolin-3-yl-amine]"
28,> 25%,"CC(C)(C)CCN1Cc2ncnc(Nc3cnc4ccccc4c3)c2C1 [Compound 15, [6-(3,3-Dimethyl-butyl)-6,7-dihydro-5H-pyrrolo[3,4-d]pyrimidin-4-yl]-quinolin-3-yl-amine]"
29,> 50%,"Cc1csc(CN2Cc3ncnc(Nc4cnc5ccccc5c4)c3C2)n1 [Compound 77, [6-(4-Methyl-thiazol-2-ylmethyl)-6,7-dihydro-5H-pyrrolo[3,4-d]pyrimidin-4-yl]-quinolin-3-yl-amine]"
